Measured values taken from PubChem BioAssay (NCI).
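GI50: concentration for 50% inhibition of growth. Definition used: TGI = concentration required for complete inhibition of growth.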

How the values were obtained:
Test in all cases: NCI-60 cell line screen, 384-well format
MOLT-4 leukemia = test system: MOLT-4 leukemia
M14 melanoma = test system: M14 melanoma
CCRF-CEM leukemia = test system: CCRF-CEM leukemia
BT-549 breast = test system: BT-549 breast
RXF 393 renal = test system: RXF 393 renal
HCC-2998 colon = test system: HCC-2998 colon
OVCAR-8 ovarian = test system: OVCAR-8 ovarian
NCI-H460 NSCLC = test system: NCI-H460 NSCLC
NCI-H522 lung = test system: NCI-H522 lung
A498 renal = test system: A498 renal
786-0 renal = test system: 786-0 renal
TK-10 renal = test system: TK-10 renal
SNB-75 CNS = test system: SNB-75 CNS
KM12 colon = test system: KM12 colon
NCI/ADR-RES ovarian = test system: NCI/ADR-RES ovarian
NCI-H23 lung = test system: NCI-H23 lung
PC-3 prostate = test system: PC-3 prostate
MDA-MB-435 melanoma = test system: MDA-MB-435 melanoma
EKVX NSCLC = test system: EKVX NSCLC
T-47D breast = test system: T-47D breast
HL-60(TB) leukemia = test system: HL-60(TB) leukemia
UACC-62 melanoma = test system: UACC-62 melanoma
HOP-92 NSCLC = test system: HOP-92 NSCLC
OVCAR-5 ovarian = test system: OVCAR-5 ovarian
HT29 colon = test system: HT29 colon
NCI-H226 lung = test system: NCI-H226 lung
RPMI-8226 leukemia = test system: RPMI-8226 leukemia
MALME-3M melanoma = test system: MALME-3M melanoma
MDA-MB-231 breast = test system: MDA-MB-231 breast
MCF7 breast = test system: MCF7 breast
SN12C renal = test system: SN12C renal
HCT-15 colon = test system: HCT-15 colon
SK-OV-3 ovarian = test system: SK-OV-3 ovarian
OVCAR-4 ovarian = test system: OVCAR-4 ovarian
DU-145 prostate = test system: DU-145 prostate
SW-620 colon = test system: SW-620 colon
MDA-MB-468 breast = test system: MDA-MB-468 breast
COLO 205 colon = test system: COLO 205 colon
SNB-19 CNS = test system: SNB-19 CNS
SK-MEL-28 melanoma = test system: SK-MEL-28 melanoma
A549 NSCLC = test system: A549 NSCLC
HOP-62 NSCLC = test system: HOP-62 NSCLC
SF-268 CNS = test system: SF-268 CNS
SF-539 CNS = test system: SF-539 CNS
SK-MEL-5 melanoma = test system: SK-MEL-5 melanoma
IGROV1 ovarian = test system: IGROV1 ovarian
SR leukemia = test system: SR leukemia
NCI-H322M lung = test system: NCI-H322M lung
ACHN renal = test system: ACHN renal
HS 578T breast = test system: HS 578T breast
SF-295 CNS = test system: SF-295 CNS
U251 glioblastoma = test system: U251 glioblastoma
UACC-257 melanoma = test system: UACC-257 melanoma
OVCAR-3 ovarian = test system: OVCAR-3 ovarian
CAKI-1 renal = test system: CAKI-1 renal
SK-MEL-2 melanoma = test system: SK-MEL-2 melanoma
UO-31 renal = test system: UO-31 renal
LOX IMVI melanoma = test system: LOX IMVI melanoma

## C/C=C/C/C=C/CCC(=O)[C@H]1O[C@H]1C(N)=O
MOLT-4 leukemia
  GI50: 4.91 µM
  TGI: 16.9 µM
M14 melanoma
  GI50: 12.2 µM
  TGI: 25 µM
CCRF-CEM leukemia
  GI50: 3.26 µM
  TGI: 11.3 µM
BT-549 breast
  GI50: 3.21 µM
  TGI: 12.8 µM
RXF 393 renal
  GI50: 0.407 µM
  TGI: 3.86 µM
HCC-2998 colon
  GI50: 12.7 µM
  TGI: 25.3 µM
OVCAR-8 ovarian
  GI50: 14.2 µM
  TGI: 27.7 µM
NCI-H460 NSCLC
  GI50: 12.3 µM
  TGI: 25 µM
NCI-H522 lung
  GI50: 3.29 µM
  TGI: 11.3 µM
A498 renal
  GI50: 17.7 µM
  TGI: 31.7 µM
786-0 renal
  GI50: 14.4 µM
  TGI: 28.2 µM
TK-10 renal
  GI50: 18.1 µM
  TGI: 32.1 µM
SNB-75 CNS
  GI50: 2.19 µM
  TGI: 7.15 µM
KM12 colon
  GI50: 13 µM
  TGI: 26.1 µM
NCI/ADR-RES ovarian
  GI50: 15.4 µM
  TGI: 31.1 µM
NCI-H23 lung
  GI50: 3.72 µM
  TGI: 12.7 µM
PC-3 prostate
  GI50: 11.1 µM
  TGI: 23.4 µM
MDA-MB-435 melanoma
  GI50: 16 µM
  TGI: 30 µM
EKVX NSCLC
  GI50: 6.48 µM
  TGI: 18.9 µM
T-47D breast
  GI50: 5.89 µM
  TGI: 17.6 µM
HL-60(TB) leukemia
  GI50: 7.3 µM
  TGI: 19.3 µM
UACC-62 melanoma
  GI50: 12.8 µM
  TGI: 27.1 µM
HOP-92 NSCLC
  GI50: 11.5 µM
  TGI: 23.9 µM
OVCAR-5 ovarian
  GI50: 17.6 µM
  TGI: 33.2 µM
HT29 colon
  GI50: 18.1 µM
  TGI: 32.7 µM
NCI-H226 lung
  GI50: 7.61 µM
  TGI: 19.7 µM
RPMI-8226 leukemia
  GI50: 2.82 µM
  TGI: 6.86 µM
MALME-3M melanoma
  GI50: 12.7 µM
  TGI: 25.3 µM
MDA-MB-231 breast
  GI50: 11.6 µM
  TGI: 24.5 µM
MCF7 breast
  GI50: 5.89 µM
  TGI: 18.4 µM
SN12C renal
  GI50: 13.4 µM
  TGI: 26.4 µM
HCT-15 colon
  GI50: 6.61 µM
  TGI: 19.6 µM
SK-OV-3 ovarian
  GI50: 16.7 µM
  TGI: 33.2 µM
OVCAR-4 ovarian
  GI50: 3.76 µM
  TGI: 15.6 µM
DU-145 prostate
  GI50: 12.7 µM
  TGI: 25.4 µM
SW-620 colon
  GI50: 14 µM
  TGI: 27.3 µM
MDA-MB-468 breast
  GI50: 2.17 µM
  TGI: 4.86 µM
COLO 205 colon
  GI50: 21 µM
  TGI: 35.4 µM
SNB-19 CNS
  GI50: 14.1 µM
  TGI: 28.2 µM
SK-MEL-28 melanoma
  GI50: 16.3 µM
  TGI: 30.2 µM
A549 NSCLC
  GI50: 16.6 µM
  TGI: 30.4 µM
HOP-62 NSCLC
  GI50: 1.34 µM
  TGI: 5.19 µM
SF-268 CNS
  GI50: 14.9 µM
  TGI: 30 µM
SF-539 CNS
  GI50: 13.8 µM
  TGI: 27.5 µM
SK-MEL-5 melanoma
  GI50: 7.25 µM
  TGI: 19.8 µM
IGROV1 ovarian
  GI50: 14.6 µM
  TGI: 28.8 µM
SR leukemia
  GI50: 2.21 µM
  TGI: 4.91 µM
NCI-H322M lung
  GI50: 17.8 µM
  TGI: 31.9 µM
ACHN renal
  GI50: 16.9 µM
  TGI: 30.7 µM
HS 578T breast
  GI50: 8.38 µM
  TGI: 21 µM
SF-295 CNS
  GI50: 11.9 µM
  TGI: 24.6 µM
U251 glioblastoma
  GI50: 11.7 µM
  TGI: 24.7 µM
UACC-257 melanoma
  GI50: 3.27 µM
  TGI: 9.64 µM
OVCAR-3 ovarian
  GI50: 12.3 µM
  TGI: 24.8 µM
CAKI-1 renal
  GI50: 14 µM
  TGI: 27 µM
SK-MEL-2 melanoma
  GI50: 8.59 µM
  TGI: 20.3 µM

## CC(=O)O[C@@]12CO[C@@H]1C[C@H](O)[C@@]1(C)C(=O)[C@H](O)C3=C(C)[C@@H](OC(=O)[C@H](O)[C@@H](NC(=O)OC(C)(C)C)c4ccccc4)C[C@@](O)([C@@H](OC(=O)c4ccccc4)[C@H]21)C3(C)C
RXF 393 renal
  TGI: < 0.0108 µM
A498 renal
  TGI: 18.7 µM
TK-10 renal
  GI50: < 0.0143 µM
  TGI: > 47.4 µM
KM12 colon
  TGI: 24 µM
NCI/ADR-RES ovarian
  GI50: 0.782 µM
  TGI: 2.26 µM
NCI-H23 lung
  TGI: 27.3 µM
PC-3 prostate
  TGI: 37.5 µM
EKVX NSCLC
  TGI: 35.8 µM
T-47D breast
  TGI: > 100 µM
UO-31 renal
  GI50: 0.0791 µM
  TGI: 51.8 µM
HOP-92 NSCLC
  TGI: 33.2 µM
OVCAR-5 ovarian
  TGI: 36.3 µM
NCI-H226 lung
  TGI: 22.5 µM
MALME-3M melanoma
  GI50: 12 µM
  TGI: 24.8 µM
MCF7 breast
  TGI: 24.7 µM
SN12C renal
  TGI: 21.2 µM
HCT-15 colon
  GI50: < 0.0151 µM
  TGI: 1.79 µM
SK-OV-3 ovarian
  TGI: > 100 µM
OVCAR-4 ovarian
  TGI: 39.9 µM
LOX IMVI melanoma
  TGI: 17.4 µM
SNB-19 CNS
  TGI: > 70.7 µM
A549 NSCLC
  TGI: 29.1 µM
HOP-62 NSCLC
  TGI: 17.3 µM
SF-268 CNS
  TGI: 36.1 µM
IGROV1 ovarian
  TGI: 27.8 µM
NCI-H322M lung
  TGI: 31.3 µM
ACHN renal
  GI50: 0.0201 µM
  TGI: 20.9 µM
UACC-257 melanoma
  TGI: 31.6 µM
CAKI-1 renal
  TGI: 18 µM
